We go through 16 compounds from patent US20130096100A1, “DI(ARYLAMINO)ARYL COMPOUND” (ASTELLAS PHARMA INC., priority 2007, published 2013).

Data set [1] has as its target T1, EML4-ALK fusion protein v1 (Homo sapiens, UniProt Q9UM73, D1529E/I1461V/K1491R).
T1 construct: FLAG (N); made in house
The data set is described as follows: Inhibitory activity against the kinase activity of EML4-ALK fusion protein v1 (Test Example 1). The data set is classed as biochemical. As to conditions: ATP 100 μM, reaction 1 hour, HTRF KinEASE-TK. The method, then: (§1) EML4-ALK fusion protein v1 (purified from BA/F3 cells expressing EML4-ALK fusion protein v1) was investigated for its phosphorylation activity toward a peptide substrate by using a kinase activity detection kit (HTRF KinEASE-TK; Cisbio Inc.). […] The ATP concentration used was 100 μM. Another reaction solution was prepared to contain the enzyme protein but no test compound (in which the solvent DMSO alone was added at 0.4% in place of the test compound), followed by reaction in the same manner with or without ATP addition. […] The concentration causing 50% inhibition (IC50) was calculated for each test compound by the logistic regression method.
(§2) N-terminally FLAG-tagged EML4-ALK fusion protein v1 was inserted into a vector pMX-iresCD8 capable of co-expression of insert cDNA and cell surface antigen CD8 (J. Biol. Chem., 2001, vol. 276, p. 39012-39020) to create a vector FLAG-EML4-ALKv1/pMX-iresCD8 expressing both FLAG-EML4-ALKv1 and CD8. FLAG-EML4-ALKv1/pMX-iresCD8 was used to create a recombinant retrovirus in the same manner as described above and infected into mouse lymphoid cell line BA/F3 cells. Using a magnetic bead reagent for cell separation and a purification column (anti-CD8 monoclonal antibody immobilized on magnetic beads and a MiniMACS purification column; both are products of Miltenyi Biotec Inc.), cell surface CD8-expressing cells were purified conveniently. […] After washing 3 times with PBS, the cells were lysed in a lysis solution (50 mM Tris.HCl (pH 7.4), 150 mM NaCl, 1% Triton X100, 5 mM EDTA, 5 mM EGTA, 1 mM NaVO4, 1 mM DTT and protease inhibitor cocktail complete). The EML4-ALK fusion protein v1 present in the supernatant obtained after centrifugation was purified using ANTI-FLAG M2 Affinity Gel (SIGMA-ALDRICH Inc.) according to the method described in the product information document.
(§3) The EML4-ALK fusion protein v1 purified as above was investigated for its phosphorylation activity toward a peptide substrate using a kinase activity detection kit (HTRF KinEASE-TK; Cisbio Inc.). Using TK substrate 1, which was included in the kit, as the substrate, and after adding no ATP or 100 μM ATP, the mixtures were reacted at room temperature for 1 hour, and the count of HTRF was detected as recommended by the Kits manufacturer.
In general terms: Time-resolved FRET reads energy transfer from a long-lived donor to a nearby acceptor.

Data set [2] deals with human non-small cell lung cancer cell line HCC827 cells (mutant EGFR protein-expressing cells). The data set is described as follows: Inhibitory effect against anchorage-independent cell growth of HCC827 cells (Test Example 4). The data set is classed as cell-based. As to conditions: 120 h, spheroid plate, 5 days, CellTiter-Glo. As for the experimental part: (§4) In a 96-well spheroid plate (Sumilon Celltight Spheroid 96U; Sumitomo Bakelite Co., Ltd., Japan), human non-small cell lung cancer cell line NCI-H2228 cells were seeded at 2000 cells per well in RPMI1640 medium (Invitrogen) containing 10% fetal bovine serum. NCI-H2228 cells are those expressing another EML4-ALK fusion protein, which is different from the EML4-ALK fusion protein v1 because it is encoded by an EML4-ALK fusion polynucleotide whose fusion point on EML4 cDNA is different from that of the EML4-ALK fusion polynucleotide v1, but whose ALK region is the same as that of the EML4-ALK fusion polynucleotide v1. The above NCI-H2228 cells seeded in the plate were cultured overnight under 5% CO2 at 37° C., followed by addition of a test compound (final concentration: 10 μM to 1 nM). As a negative control, DMSO used as a solvent was added at the same concentration as the test compound. Then, the cells were cultured under 5% CO2 at 37° C. for 5 days. A cell counting reagent (CellTiter-Glo™ Luminescent Cell Viability Assay; Promega) was added and agitated for 20 minutes, followed by measurement with a luminometer (ML3000 microtiter plate luminometer; Dynatech Laboratories).
Evaluation of Inhibitory Effect Against Anchorage-Independent Cell Growth of Human Non-Small Cell Lung Cancer Cell Line HCC827 Cells (Mutant EGFR (with Partial Deletion of Exon 19 in EGFR) Protein-Expressing Cells, American Type Culture Collection)
Evaluation was performed in the same manner as shown in Test Example 3.
(In ATP-based viability assays light output follows the ATP content of the culture.)

For data set [3], the system named is human non-small cell lung cancer cell line NCI-H2228 cells (EML4-ALK fusion protein-expressing cells). Put plainly: Inhibitory effect against anchorage-independent cell growth of NCI-H2228 cells (Test Example 3). The data set is classed as cell-based. As to conditions: 120 h, spheroid plate, 5 days, CellTiter-Glo.
From the text: Measurement for anchorage-independent cell growth (colony method, etc) has been known to be a system for investigating the anticancer action (pharmacological effect) of test compounds (Clinical Oncology, second edition, Cancer and Chemotherapy Publishers Inc.). In place of the colony method, there is a following method using spheroid plates for measuring the growth of non-attached cells.
as §4

Data set [4] concerns the target T2, MUSK (Homo sapiens, UniProt O15146).
T2 sequence (O15146 24-869): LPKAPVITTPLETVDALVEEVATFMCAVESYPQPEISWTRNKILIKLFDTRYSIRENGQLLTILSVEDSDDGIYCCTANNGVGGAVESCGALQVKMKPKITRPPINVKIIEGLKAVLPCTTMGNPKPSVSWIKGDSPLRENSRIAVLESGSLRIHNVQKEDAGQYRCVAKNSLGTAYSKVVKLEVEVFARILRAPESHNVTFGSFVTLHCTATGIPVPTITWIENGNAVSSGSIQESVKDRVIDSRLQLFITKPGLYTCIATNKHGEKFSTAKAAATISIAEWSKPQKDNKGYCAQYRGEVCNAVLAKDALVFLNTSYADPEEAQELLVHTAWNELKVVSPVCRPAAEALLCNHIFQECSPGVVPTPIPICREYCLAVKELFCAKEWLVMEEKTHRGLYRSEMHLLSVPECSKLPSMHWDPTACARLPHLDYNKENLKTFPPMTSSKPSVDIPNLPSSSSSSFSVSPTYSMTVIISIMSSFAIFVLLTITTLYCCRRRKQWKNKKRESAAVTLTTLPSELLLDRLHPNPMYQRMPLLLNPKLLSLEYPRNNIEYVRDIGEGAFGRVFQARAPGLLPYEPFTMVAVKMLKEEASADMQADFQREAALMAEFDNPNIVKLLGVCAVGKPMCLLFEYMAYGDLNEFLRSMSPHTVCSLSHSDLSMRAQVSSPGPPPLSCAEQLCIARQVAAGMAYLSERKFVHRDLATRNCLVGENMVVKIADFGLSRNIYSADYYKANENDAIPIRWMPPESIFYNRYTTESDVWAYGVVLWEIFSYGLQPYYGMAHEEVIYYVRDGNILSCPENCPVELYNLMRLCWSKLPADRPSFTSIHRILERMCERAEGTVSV
The data set is described as follows: Inhibitory activity against the kinase activity of MUSK protein (Test Example 7). As to conditions: ATP 10 μM, reaction 1 hour, HTRF KinEASE-TK. On the set-up: purchased Carna Biosciences Inc., Japan. The data set is classed as biochemical. As for the experimental part:
as §1, with “MUSK” for “EML4-ALK fusion”, “(Carna Biosciences Inc., Japan)” for “v1 (purified from BA/F3 cells expressing EML4-ALK fusion protein v1)”, “10” for “100”

The target of data set [5] is T3, Mutant EGFR (L858R) protein (Homo sapiens, UniProt P00533, L858R).
T3 construct: purchased Cana Biosciences Inc., Japan (sic; Carna Biosciences)
T3 sequence (P00533 25-1210 L858R): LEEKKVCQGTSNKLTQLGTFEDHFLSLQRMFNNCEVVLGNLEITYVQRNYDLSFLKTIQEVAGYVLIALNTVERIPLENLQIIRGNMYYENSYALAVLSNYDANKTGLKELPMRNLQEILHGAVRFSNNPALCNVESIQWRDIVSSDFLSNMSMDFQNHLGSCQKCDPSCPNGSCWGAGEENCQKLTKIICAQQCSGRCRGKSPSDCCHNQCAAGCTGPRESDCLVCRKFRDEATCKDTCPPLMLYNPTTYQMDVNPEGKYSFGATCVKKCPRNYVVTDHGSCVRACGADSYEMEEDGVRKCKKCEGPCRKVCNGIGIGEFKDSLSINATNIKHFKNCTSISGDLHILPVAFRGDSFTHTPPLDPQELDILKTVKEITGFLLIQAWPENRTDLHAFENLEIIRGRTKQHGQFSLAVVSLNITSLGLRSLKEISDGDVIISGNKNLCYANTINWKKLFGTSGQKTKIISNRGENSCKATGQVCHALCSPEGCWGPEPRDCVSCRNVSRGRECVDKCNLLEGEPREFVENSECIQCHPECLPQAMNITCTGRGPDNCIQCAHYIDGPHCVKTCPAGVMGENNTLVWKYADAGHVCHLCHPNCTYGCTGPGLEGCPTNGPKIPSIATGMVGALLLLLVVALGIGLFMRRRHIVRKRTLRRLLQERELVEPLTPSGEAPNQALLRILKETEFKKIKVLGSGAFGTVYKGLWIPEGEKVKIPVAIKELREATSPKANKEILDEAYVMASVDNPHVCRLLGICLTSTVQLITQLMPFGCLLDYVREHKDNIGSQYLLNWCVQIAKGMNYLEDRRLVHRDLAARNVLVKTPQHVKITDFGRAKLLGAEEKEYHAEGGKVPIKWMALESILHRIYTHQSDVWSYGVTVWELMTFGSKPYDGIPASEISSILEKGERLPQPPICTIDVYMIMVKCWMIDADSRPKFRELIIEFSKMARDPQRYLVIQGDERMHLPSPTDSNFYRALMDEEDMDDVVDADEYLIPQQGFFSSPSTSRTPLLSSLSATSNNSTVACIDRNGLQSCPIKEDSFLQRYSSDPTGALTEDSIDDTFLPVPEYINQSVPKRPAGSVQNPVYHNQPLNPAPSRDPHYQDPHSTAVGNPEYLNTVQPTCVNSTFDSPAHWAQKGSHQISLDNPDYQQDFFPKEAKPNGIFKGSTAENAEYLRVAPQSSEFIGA
Put plainly: Inhibitory activity against the kinase activity of mutant EGFR (L858R) protein (Test Example 2). In kind it is biochemical. As to conditions: ATP 5 μM, reaction 1 hour, HTRF KinEASE-TK. As for the experimental part:
The ATP concentration used was 5 μM. Another reaction solution was prepared to contain the enzyme protein but no test compound (in which the solvent DMSO alone was added at 0.4% in place of the test compound), followed by reaction in the same manner with or without ATP addition. […] The concentration causing 50% inhibition (IC50) was calculated for each test compound by the logistic regression method.

In data set [6] the target is T1, EML4-ALK fusion protein v1. The data set is described as follows: Inhibitory effect of compounds against the in vitro kinase activity of EML4-ALK fusion protein v1, single concentration (Test Example 12(3)). In kind it is biochemical. As to conditions: final concentration 10 μM.
From the text: as §2, §3

T1 sequence (Q9UM73 with tags, fused parts or gaps I1461V/K1491R/D1529E): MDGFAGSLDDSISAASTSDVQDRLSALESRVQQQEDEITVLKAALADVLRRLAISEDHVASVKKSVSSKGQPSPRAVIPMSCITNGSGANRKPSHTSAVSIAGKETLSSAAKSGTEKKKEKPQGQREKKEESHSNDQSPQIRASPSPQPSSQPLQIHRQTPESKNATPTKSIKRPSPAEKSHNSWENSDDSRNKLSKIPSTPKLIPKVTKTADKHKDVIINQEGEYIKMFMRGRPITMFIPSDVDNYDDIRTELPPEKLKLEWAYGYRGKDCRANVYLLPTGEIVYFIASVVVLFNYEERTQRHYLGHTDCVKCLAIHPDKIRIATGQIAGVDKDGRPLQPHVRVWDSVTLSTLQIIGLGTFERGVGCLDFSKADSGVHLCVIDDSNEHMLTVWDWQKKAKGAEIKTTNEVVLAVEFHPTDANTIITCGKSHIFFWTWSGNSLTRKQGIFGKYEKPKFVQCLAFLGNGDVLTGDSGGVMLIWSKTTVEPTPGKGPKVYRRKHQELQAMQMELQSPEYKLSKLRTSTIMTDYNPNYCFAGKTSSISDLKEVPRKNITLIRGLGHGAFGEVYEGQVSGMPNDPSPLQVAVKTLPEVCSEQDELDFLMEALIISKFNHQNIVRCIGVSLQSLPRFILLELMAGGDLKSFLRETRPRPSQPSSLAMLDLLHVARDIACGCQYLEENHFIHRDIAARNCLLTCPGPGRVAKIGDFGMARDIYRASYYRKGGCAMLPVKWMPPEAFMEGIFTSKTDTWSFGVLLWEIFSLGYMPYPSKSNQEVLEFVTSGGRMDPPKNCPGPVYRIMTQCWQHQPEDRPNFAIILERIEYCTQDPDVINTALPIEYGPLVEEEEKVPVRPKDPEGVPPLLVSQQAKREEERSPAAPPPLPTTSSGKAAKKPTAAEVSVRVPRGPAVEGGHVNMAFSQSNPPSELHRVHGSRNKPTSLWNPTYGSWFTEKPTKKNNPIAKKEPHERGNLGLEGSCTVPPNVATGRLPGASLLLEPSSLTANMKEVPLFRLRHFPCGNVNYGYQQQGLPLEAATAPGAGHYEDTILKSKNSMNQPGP

For `COc1cc(N2CCC(N3CCN(C)CC3)CC2)ccc1Nc1ncnc(Nc2ccccc2S(=O)(=O)NC2CC2)n1` [Example 171], the concentration for half-maximal inhibition (IC50) (in general, the midpoint of a concentration-inhibition curve) in data set [1] stood at 33 nM; in data set [2], 252 nM; in data set [3], 61 nM.
Take `COc1cc(N(C)C2CCN(C)CC2)ccc1Nc1ncnc(Nc2ccccc2S(=O)(=O)C(C)C)n1` [Example 52]: the IC50 is 72 nM in data set [1], 820 nM in data set [2] and 159 nM in data set [3].
Consider `COc1cc(N2CCC(N3CCC(O)C3)CC2)ccc1Nc1ncnc(Nc2ccccc2S(=O)(=O)C(C)C)n1` (stereo not drawn) [Example 63], for which the 50% inhibitory concentration (IC50) in data set [1] was 26 nM; in data set [2], 791 nM; in data set [3], 96 nM.
As for `COc1cc(N2CCC(N3CCCC3)CC2)ccc1Nc1ncnc(Nc2ccccc2S(=O)(=O)C(C)C)n1` [Example 58], the figures for the 50% inhibitory concentration (IC50) in data set [1], in data set [2] and in data set [3] were 25 nM, 648 nM and 156 nM, respectively.
As for `COc1cc(N2CCC(N3CCN(C)CC3)CC2)ccc1Nc1ncnc(Nc2ccccc2S(=O)(=O)N(C)C)n1` [Example 128], the melting point (as a rule, the temperature of the solid-liquid transition) fell in the range of 167 to 170 °C. The compound also showed an IC50 in data set [4] of 1800 nM. The compound also displayed an IC50 in data set [1] of 2.3 nM. This compound returned an IC50 in data set [2] of 175 nM. In addition, the midpoint of inhibition in data set [5], the IC50, lay at 98 nM. This compound also gave a concentration for half-maximal inhibition (IC50) in data set [3] of 64 nM.
Compound `COc1cc(N2CCN(C3CCN(C)CC3)CC2)ccc1Nc1nc(Nc2ccccc2S(=O)(=O)C(C)C)c2ccccc2n1` [Example 45] returned a melting point of 109 to 114 °C. The same compound displayed a 50% inhibitory concentration (IC50) in data set [1] of 66 nM. Besides, the IC50 in data set [2] was 1900 nM. Moreover, the midpoint of inhibition in data set [3], the IC50, lay at 1040 nM.
Taken in the same sequence, the figures for `COc1cc(N2CCC3(CCCCN3C)CC2)ccc1Nc1ncnc(Nc2ccccc2S(=O)(=O)C(C)C)n1` [Example 12] were 132 to 135 °C, 61 nM, 509 nM and 134 nM.
`COc1cc(N2CCN(C)CC2)ccc1Nc1ncnc(Nc2ccccc2S(=O)(=O)C(C)C)n1` [Example 24]: the half-inhibitory concentration (IC50) in data set [1] came to 29 nM; in data set [2] it was 1030 nM; in data set [3] it was 125 nM.
Regarding `COc1cc(N2CCC(N3CCN(C)CC3)CC2)ccc1Nc1ncnc(Nc2ccccc2S(=O)(=O)N(C)C(C)C)n1` [Example 166], the melting point fell in the range of 162 to 164 °C. Further, the 50% inhibitory concentration (IC50) in data set [1] came out at 49 nM. Further, the half-maximal inhibitory concentration (IC50) in data set [2] is 419 nM. For the same compound, in data set [3], the concentration for half-maximal inhibition (IC50) was 125 nM.
As to `O=C(COc1ccc(OC(F)(F)F)cc1)NCc1nc(C(=O)NCCc2cccc(Cl)c2)cs1` [Compound B, N-[2-(3-chlorophenyl)ethyl]-2-[({[4-(trifluoromethoxy)phenoxy]acetyl}amino)methyl]-1,3-thiazole-4-carboxamide], the inhibition (commonly the relative decrease from the control value, in per cent) at 10 µM in data set [6] was 56%.
Compound `COc1cc2ncnc(Nc3ccc(O)c(Br)c3)c2cc1OC` [Compound A, 4-[(3′-bromo-4′-hydroxyphenyl)amino]-6,7-dimethoxyquinazoline] had an inhibition at 10 µM in data set [6] of 99%.
On to `COc1cc(N2CCNCC2)ccc1Nc1ncnc(Nc2ccccc2S(=O)(=O)C(C)C)n1` [Example 72], for which the figures for the IC50 in data set [1], in data set [2] and in data set [3] were 51 nM, 670 nM and 93 nM, respectively.
As for `COc1cc(N2CCC3(CCCN3C)CC2)ccc1Nc1ncnc(Nc2ccccc2S(=O)(=O)C(C)C)n1` [Example 120], the IC50 in data set [1] is 74 nM; in data set [2] it was 660 nM; in data set [3] it was 168 nM.
Taken in the same sequence, the figures for `COc1cc(N2CC(N3CCN(C)CC3)C2)ccc1Nc1ncnc(Nc2ccccc2S(=O)(=O)C(C)C)n1` [Example 176] were 150 nM, 496 nM and 119 nM.
Consider `CNS(=O)(=O)c1ccccc1Nc1ncnc(Nc2ccc(N3CCC(N4CCN(C)CC4)CC3)cc2OC)n1` [Example 7, 2-{[4-({2-methoxy-4-[4-(4-methylpiperazin-1-yl)piperidin-1-yl]phenyl}amino)-1,3,5-triazin-2-yl]amino}-N-methylbenzenesulfonamide], for which the figures for the IC50 in data set [1], in data set [2] and in data set [3] were 50 nM, 214 nM and 87 nM, respectively.
Consider `COc1cc(N2CCC(N3CCN(C)CC3)CC2)ccc1Nc1ncnc(Nc2ccccc2S(=O)(=O)NC(C)C)n1` [Example 149], for which the melting point fell in the range of 185 to 189 °C. The same compound gave an IC50 in data set [1] of 40 nM. Besides, in data set [2], the IC50 turned out to be 512 nM. Also, in data set [3], the concentration for half-maximal inhibition (IC50) worked out at 62 nM.
